Results from patent US20240374744A1, “PROTEIN AND PHARMACEUTICAL COMPOSITION COMPRISING SAME FOR PREVENTION OR TREATMENT OF CANCER” (CELLEMEDY CO., LTD, priority 2021, published 2024).

Key:
Type in all cases: cell-based
Normal lung cells WI-38 = assay: CCK (cell counting kit) cytotoxicity assay, WI-38; conditions: WI-38 cell; anticancer drug alone vs protein nanoparticle conjugate, from IC50
Procedure: (§1) Normal lung cells WI-38 and IMR-90, and normal colon cells CCD-18co were grown in 96-well microplate with 1×10^4 cells/well for 36 hours, and the cytotoxicity when only anticancer drug was added and the cytotoxicity when protein nanoparticle-anticancer drug conjugate was added were compared.

Normal lung cells IMR-90 = assay: CCK (cell counting kit) cytotoxicity assay, IMR-90; conditions: IMR-90 cell; anticancer drug alone vs protein nanoparticle conjugate, from IC50
Procedure: as §1

[1] = test system: normal colon cells CCD-18co; assay: CCK (cell counting kit) cytotoxicity assay, CCD-18co; conditions: CCD-18co cell; anticancer drug alone vs protein nanoparticle conjugate, from IC50
Procedure: as §1

## Nc1ccn([C@@H]2O[C@H](CO)[C@@H](O)C2(F)F)c(=O)n1 [GEM, gemcitabine]
Normal lung cells WI-38
  drug toxicity reduction (DTR): 3162
Normal lung cells IMR-90
  drug toxicity reduction (DTR): 7244
[1]
  drug toxicity reduction (DTR): 8913

## COc1cccc2c1C(=O)c1c(O)c3c(c(O)c1C2=O)C[C@@](O)(C(=O)CO)C[C@@H]3O[C@H]1C[C@H](N)[C@H](O)[C@H](C)O1 [DOX, doxorubicin]
Normal lung cells WI-38
  drug toxicity reduction (DTR): 263
Normal lung cells IMR-90
  drug toxicity reduction (DTR): 316
[1]
  drug toxicity reduction (DTR): 91
